Assay results reported in patent US20250049033A1, “PESTICIDALLY ACTIVE PYRIDAZINONE COMPOUNDS” (SYNGENTA CROP PROTECTION AG, priority 2021, published 2025).

What was measured:
Format in all cases: in vivo
Chilo suppressalis = assay: Activity against Chilo suppressalis (striped rice stemborer), artificial diet, L2 larvae; settings: 144 h, application rate 200 ppm, 6 days after infestation, vs untreated, read-out: control in at least one of the three categories (mortality, anti-feedant effect, or growth inhibition)
Description: Example B1: Activity Against Chilo suppressalis (Striped Rice Stemborer)
24-well microtiter plates with artificial diet were treated with aqueous test solutions prepared from 10′000 ppm DMSO stock solutions by pipetting. After drying, the plates were infested with L2 larvae (6-8 per well). The samples were assessed for mortality, anti-feeding effect, and growth inhibition in comparison to untreated samples 6 days after infestation. Control of Chilo suppressalis by a test sample is given when at least one of the categories mortality, anti-feedant effect, and growth inhibition is higher than the untreated sample.

Diabrotica balteata = assay: Activity against Diabrotica balteata (corn root worm), maize sprouts, L2 larvae; settings: 96 h, application rate 200 ppm, 4 days after infestation, vs untreated, read-out: control in at least one of the two categories (mortality or growth inhibition)
Description: Example B2: Activity Against Diabrotica balteata (Corn Root Worm)
Maize sprouts placed onto an agar layer in 24-well microtiter plates were treated with aqueous test solutions prepared from 10′000 ppm DMSO stock solutions by spraying. After drying, the plates were infested with L2 larvae (6 to 10 per well). The samples were assessed for mortality and growth inhibition in comparison to untreated samples 4 days after infestation.

Euschistus heros = assay: Activity against Euschistus heros (neotropical brown stink bug), soybean leaves, N2 nymphs; settings: 120 h, application rate 200 ppm, 5 days after infestation, vs untreated, read-out: effect in at least one of the two categories (mortality or growth inhibition)
Description: Example B3: Activity Against Euschistus heros (Neotropical Brown Stink Bug)
Soybean leaves on agar in 24-well microtiter plates were sprayed with aqueous test solutions prepared from 10′000 ppm DMSO stock solutions. After drying the leaves were infested with N2 nymphs. The samples were assessed for mortality and growth inhibition in comparison to untreated samples 5 days after infestation.

Myzus persicae [1] = assay: Activity against Myzus persicae (green peach aphid), feeding/contact activity; settings: foliar, 144 h, application rate 200 ppm, 6 days after infestation, sunflower leaf discs, mixed ages
Description: Example B5: Activity Against Myzus persicae (Green Peach Aphid). Feeding/Contact Activity
Sunflower leaf discs were placed onto agar in a 24-well microtiter plate and sprayed with aqueous test solutions prepared from 10′000 ppm DMSO stock solutions. After drying, the leaf discs were infested with an aphid population of mixed ages. The samples were assessed for mortality 6 days after infestation.

Myzus persicae [2] = assay: Activity against Myzus persicae (green peach aphid), intrinsic activity; settings: 120 h, test rate 12 ppm, 5 days after infestation, sucrose solution through Parafilm
Source text: Example B6: Activity Against Myzus persicae (Green Peach Aphid). Intrinsic Activity
Test compounds prepared from 10′000 ppm DMSO stock solutions were applied by pipette into 24-well microtiter plates and mixed with sucrose solution. The plates were closed with a stretched Parafilm. A plastic stencil with 24 holes was placed onto the plate and infested pea seedlings were placed directly on the Parafilm. The infested plate was closed with a gel blotting paper and another plastic stencil and then turned upside down. The samples were assessed for mortality 5 days after infestation.

Plutella xylostella = assay: Activity against Plutella xylostella (diamond back moth), artificial diet, eggs; settings: 192 h, application rate 200 ppm, 8 days after infestation, vs untreated, read-out: control in at least one of the two categories (mortality or growth inhibition)
Description: Example B7: Activity Against Plutella xylostella (Diamond Back Moth)
24-well microtiter plates with artificial diet were treated with aqueous test solutions prepared from 10′000 ppm DMSO stock solutions by pipetting. After drying, Plutella eggs were pipetted through a plastic stencil onto a gel blotting paper and the plate was closed with it. The samples were assessed for mortality and growth inhibition in comparison to untreated samples 8 days after infestation. The following compounds gave an effect of at least 80% control in at least one of the two categories (mortality or growth inhibition) at an application rate of 200 ppm: P1, P2, P3, P4, P6, P7, P8, P9, P10, P11, P12, P13, P14, P15, P16, P17, P18, P19, P20, P21, P22, P23, P24, P25, P26, P27.

Spodoptera littoralis = assay: Activity against Spodoptera littoralis (Egyptian cotton leaf worm), cotton leaf discs, L1 larvae; settings: foliar, 72 h, application rate 200 ppm, 3 days after infestation, vs untreated, read-out: control in at least one of the three categories (mortality, anti-feedant effect, or growth inhibition)
Description: Example B8: Activity Against Spodoptera littoralis (Egyptian Cotton Leaf Worm)
Cotton leaf discs were placed onto agar in 24-well microtiter plates and sprayed with aqueous test solutions prepared from 10′000 ppm DMSO stock solutions. After drying the leaf discs were infested with five L1 larvae. The samples were assessed for mortality, anti-feeding effect, and growth inhibition in comparison to untreated samples 3 days after infestation. Control of Spodoptera littoralis by a test sample is given when at least one of the categories mortality, anti-feedant effect, and growth inhibition is higher than the untreated sample.

CC(c1nccnc1-c1ccc(=O)n(C)n1)N(C)c1ncnc2c(C(F)(F)F)cc(Cl)cc12 (racemic) [P21, 6-[3-[1-[[6-chloro-8-(trifluoromethyl)quinazolin-4-yl]-methyl-amino]ethyl]pyrazin-2-yl]-2-methyl-pyridazin-3-one]
≥ 80%: percent control (mortality, anti-feedant effect or growth inhibition) at 200 ppm (Chilo suppressalis) | percent control (mortality or growth inhibition) at 200 ppm (Diabrotica balteata) | percent effect (mortality or growth inhibition) at 200 ppm (Euschistus heros) | mortality at 200 ppm (Myzus persicae [1]) | mortality at 12 ppm (Myzus persicae [2]) | percent control (mortality or growth inhibition) at 200 ppm (Plutella xylostella) | percent control (mortality, anti-feedant effect or growth inhibition) at 200 ppm (Spodoptera littoralis)

C[C@H](Nc1nc(=O)n(C)c2c(Cl)cc(C(F)(F)F)cc12)c1ncnn1-c1ccc(=O)n(C)n1 [P1, 8-chloro-1-methyl-4-[[(1S)-1-[2-(1-methyl-6-oxo-pyridazin-3-yl)-1,2,4-triazol-3-yl]ethyl]amino]-6-(trifluoromethyl)quinazolin-2-one]
≥ 80%: percent control (mortality, anti-feedant effect or growth inhibition) at 200 ppm (Chilo suppressalis) | percent effect (mortality or growth inhibition) at 200 ppm (Euschistus heros) | percent control (mortality or growth inhibition) at 200 ppm (Plutella xylostella)

C[C@H](Nc1ncnc2c(C(F)(F)F)cc(Cl)cc12)c1ncnn1-c1ccc(=O)n(C)n1 [P2, 6-[5-[(1S)-1-[[6-chloro-8-(trifluoromethyl)quinazolin-4-yl]amino]ethyl]-1,2,4-triazol-1-yl]-2-methyl-pyridazin-3-one]
≥ 80%: percent control (mortality, anti-feedant effect or growth inhibition) at 200 ppm (Chilo suppressalis) | percent control (mortality or growth inhibition) at 200 ppm (Diabrotica balteata) | percent effect (mortality or growth inhibition) at 200 ppm (Euschistus heros) | mortality at 200 ppm (Myzus persicae [1]) | percent control (mortality or growth inhibition) at 200 ppm (Plutella xylostella) | percent control (mortality, anti-feedant effect or growth inhibition) at 200 ppm (Spodoptera littoralis)

C[C@H](Nc1ncnc2c(C(F)(F)F)cc(C(F)(F)F)cc12)c1ncnn1-c1ccc(=O)n(C)n1 [P3, 6-[5-[(1S)-1-[[6,8-bis(trifluoromethyl)quinazolin-4-yl]amino]ethyl]-1,2,4-triazol-1-yl]-2-methyl-pyridazin-3-one]
≥ 80%: percent control (mortality, anti-feedant effect or growth inhibition) at 200 ppm (Chilo suppressalis) | percent control (mortality or growth inhibition) at 200 ppm (Diabrotica balteata) | percent effect (mortality or growth inhibition) at 200 ppm (Euschistus heros) | mortality at 200 ppm (Myzus persicae [1]) | mortality at 12 ppm (Myzus persicae [2]) | percent control (mortality or growth inhibition) at 200 ppm (Plutella xylostella) | percent control (mortality, anti-feedant effect or growth inhibition) at 200 ppm (Spodoptera littoralis)

C[C@H](Nc1nc(Cl)nc2c(Cl)cc(C(F)(F)F)cc12)c1ncnn1-c1ccc(=O)n(C)n1 [P4, 6-[5-[(1S)-1-[[2,8-dichloro-6-(trifluoromethyl)quinazolin-4-yl]amino]ethyl]-1,2,4-triazol-1-yl]-2-methyl-pyridazin-3-one]
≥ 80%: percent control (mortality, anti-feedant effect or growth inhibition) at 200 ppm (Chilo suppressalis) | percent control (mortality or growth inhibition) at 200 ppm (Diabrotica balteata) | mortality at 200 ppm (Myzus persicae [1]) | percent control (mortality or growth inhibition) at 200 ppm (Plutella xylostella)

C[C@H](Nc1ncnc2c(I)cc(Cl)cc12)c1ncnn1-c1ccc(=O)n(C)n1 [P11, 6-[5-[(1S)-1-[(6-chloro-8-iodo-quinazolin-4-yl)-amino]ethyl]-1,2,4-triazol-1-yl]-2-methyl-pyridazin-3-one]
≥ 80%: percent control (mortality, anti-feedant effect or growth inhibition) at 200 ppm (Chilo suppressalis) | percent effect (mortality or growth inhibition) at 200 ppm (Euschistus heros) | mortality at 12 ppm (Myzus persicae [2]) | percent control (mortality or growth inhibition) at 200 ppm (Plutella xylostella) | percent control (mortality, anti-feedant effect or growth inhibition) at 200 ppm (Spodoptera littoralis)

C[C@@H](c1ncnn1-c1ccc(=O)n(C)n1)N(C)c1ncnc2c(Br)cc(Br)cc12 [P14, 6-[5-[(1S)-1-[(6,8-dibromoquinazolin-4-yl)-methyl-amino]ethyl]-1,2,4-triazol-1-yl]-2-methyl-pyridazin-3-one]
≥ 80%: percent control (mortality or growth inhibition) at 200 ppm (Diabrotica balteata) | percent effect (mortality or growth inhibition) at 200 ppm (Euschistus heros) | mortality at 200 ppm (Myzus persicae [1]) | mortality at 12 ppm (Myzus persicae [2]) | percent control (mortality or growth inhibition) at 200 ppm (Plutella xylostella) | percent control (mortality, anti-feedant effect or growth inhibition) at 200 ppm (Spodoptera littoralis)

C[C@H](Nc1ncnc2c(Cl)cc(C(F)(F)F)cc12)c1ncnn1-c1ccc(=O)n(C)n1 [P16, 6-[5-[(1S)-1-[[8-chloro-6-(trifluoro-methyl)quinazolin-4-yl]amino]ethyl]-1,2,4-triazol-1-yl]-2-methyl-pyrid-azin-3-one]
≥ 80%: percent control (mortality, anti-feedant effect or growth inhibition) at 200 ppm (Chilo suppressalis) | percent control (mortality or growth inhibition) at 200 ppm (Diabrotica balteata) | percent effect (mortality or growth inhibition) at 200 ppm (Euschistus heros) | mortality at 12 ppm (Myzus persicae [2]) | percent control (mortality or growth inhibition) at 200 ppm (Plutella xylostella) | percent control (mortality, anti-feedant effect or growth inhibition) at 200 ppm (Spodoptera littoralis)

C[C@H](Nc1ncnc2c(Br)cc(Br)cc12)c1ncnn1-c1ccc(=O)n(C)n1 [P18, 6-[5-[(1S)-1-[(6,8-dibromoquinazolin-4-yl)amino]ethyl]-1,2,4-triazol-1-yl]-2-methyl-pyridazin-3-one]
≥ 80%: percent control (mortality or growth inhibition) at 200 ppm (Plutella xylostella)

C[C@H](Nc1ncnc2c(Cl)cc(I)cc12)c1ncnn1-c1ccc(=O)n(C)n1 [P20, 6-[5-[(1S)-1-[(8-chloro-6-iodo-quinazolin-4-yl)-amino]ethyl]-1,2,4-triazol-1-yl]-2-methyl-pyridazin-3-one]
≥ 80%: mortality at 200 ppm (Myzus persicae [1]) | percent control (mortality or growth inhibition) at 200 ppm (Plutella xylostella)

C[C@@H](c1ncnn1-c1ccc(=O)n(C)n1)N(C)c1ncnc2c(Cl)cc(C(F)(F)F)cc12 [P23, 6-[5-[(1S)-1-[[8-chloro-6-(trifluoro-methyl)quinazolin-4-yl]-methyl-amino]ethyl]-1,2,4-triazol-1-yl]-2-methyl-pyr-idazin-3-one]
≥ 80%: percent control (mortality, anti-feedant effect or growth inhibition) at 200 ppm (Chilo suppressalis) | percent control (mortality or growth inhibition) at 200 ppm (Diabrotica balteata) | percent effect (mortality or growth inhibition) at 200 ppm (Euschistus heros) | mortality at 12 ppm (Myzus persicae [2]) | percent control (mortality or growth inhibition) at 200 ppm (Plutella xylostella) | percent control (mortality, anti-feedant effect or growth inhibition) at 200 ppm (Spodoptera littoralis)

C[C@H](Nc1ncnc2c(I)cc(Cl)cc12)c1ncnn1C1=NN(C)C(=O)CC1 [P25, 6-[5-[(1S)-1-[(6-chloro-8-iodo-quinazolin-4-yl)amino]ethyl]-1,2,4-triazol-1-yl]-2-methyl-4,5-dihydropyridazin-3-one]
≥ 80%: percent control (mortality, anti-feedant effect or growth inhibition) at 200 ppm (Chilo suppressalis) | percent control (mortality or growth inhibition) at 200 ppm (Diabrotica balteata) | percent effect (mortality or growth inhibition) at 200 ppm (Euschistus heros) | mortality at 12 ppm (Myzus persicae [2]) | percent control (mortality or growth inhibition) at 200 ppm (Plutella xylostella) | percent control (mortality, anti-feedant effect or growth inhibition) at 200 ppm (Spodoptera littoralis)

C[C@@H](c1ncnn1C1=NN(C)C(=O)CC1)N(C)c1ncnc2c(I)cc(Cl)cc12 [P26, 6-[5-[(1S)-1-[(6-chloro-8-iodo-quinazolin-4-yl)-methyl-amino]ethyl]-1,2,4-triazol-1-yl]-2-methyl-4,5-dihydropyridazin-3-one]
≥ 80%: percent control (mortality, anti-feedant effect or growth inhibition) at 200 ppm (Chilo suppressalis) | percent control (mortality or growth inhibition) at 200 ppm (Diabrotica balteata) | percent effect (mortality or growth inhibition) at 200 ppm (Euschistus heros) | mortality at 12 ppm (Myzus persicae [2]) | percent control (mortality or growth inhibition) at 200 ppm (Plutella xylostella) | percent control (mortality, anti-feedant effect or growth inhibition) at 200 ppm (Spodoptera littoralis)
